# Measurements published in patent publication US20090318426A1, “USE OF FLUMAZENIL IN THE MANUFACTURE OF A MEDICAMENT FOR THE TREATMENT OF DEPRESSIVE DISORDERS” (priority 2006, published 2009).
# Columns and labels:
# [1] = system: patients presenting a depressive disorder; details: in vivo
# Procedure: (§1) Three patients presenting a depressive disorder were subjected to treatment.
# During the assessment prior to the admission, a thorough psychopathological and medical evaluation was conducted first thing in the morning (9:00 AM). The medical examination included an electrocardiogram and a complete blood analysis, in which the different cell series (red blood cells, white blood cells and platelets) and the biochemical profile (glucose, creatinine, urea, cholesterol and the fractions thereof, triglycerides, alkaline phosphatase, GOT, GPT, GGT, LDH, total proteins, etc.) were studied.
# Flumazenil was administered in doses of 0.2 mg every 3 minutes (up to a total of 2 mg/day). This quantity per dose was established to reduce as much as possible undesirable side effects related to possible interactions with other drugs or psychopathologies. Before starting the first administration of flumazenil, a test consisting of the administration of a bolus of 0.1 mg of flumazenil was conducted to evaluate the reaction of the subject.
# [2] = system: patients presenting a depressive disorder; experiment: Clinical observation of mood, attention and sleep after administration of flumazenil; type: in vivo, human; details: for changes in mood: three patients
# Procedure: as §1
# (§2) Flumazenil was administered in doses of 0.2 mg every 3 minutes (up to a total of 2 mg/day). […] Before starting the first administration of flumazenil, a test consisting of the administration of a bolus of 0.1 mg of flumazenil was conducted to evaluate the reaction of the subject.
# [3] = system: patients presenting a depressive disorder; experiment: SCL-90-R (Symptom Checklist 90 Revised) scale in patients treated with flumazenil; type: in vivo, human; details: for SCL-90-R at the end: after third administration of flumazenil 2 mg/day, 0.2 mg every 3 minutes
# Procedure: as §1, §2
compound,measurement,setting,value
"CCOC(=O)c1ncn2c1CN(C)C(=O)c1cc(F)ccc1-2 [Flumazenil, 8-fluoro-5,6-dihydro-5-methyl-6-oxo-4H-imidazol[1,5-α][1,4]benzodiazepine-3-carboxylic acid ethyl ester]",blood pressure values,[1],remained within the range of normal
same,cardiovascular values,[1],remained within normal parameters
same,cardiovascular values (heart rate and blood pressure),[1],did not undergo significant changes
same,heart rate values,[1],did not undergo any significant increases
same,secondary symptoms,[1],Secondary symptoms did not occur
same,symptoms associated to administration,[1],no symptoms associated to such administration
same,mood of the treated patients,[2]; 2 mg/day divided into doses of 0.2 mg every 3 minutes,substantially improves the mood
same,"attention, concentration and other superior faculties",[2]; after third administration,"improvement of attention, concentration and other superior faculties being more evident"
same,existing sleep disorders,[2]; after third administration,completely corrected
same,sleep (early waking),"[2]; patient P01, first night after first administration",did not occur on this first night
same,sleep (difficulty in falling asleep),"[2]; patient P03, first night after first administration",fell asleep early in the night
same,changes in mood,"[2]; after first administration, with respect to time of admission",feeling of wellbeing and more calmness
same,changes in mood,[2]; after second administration,better mood
same,time until induced improvement reaches a clinical level,[2]; treatment of depressive disorders,less than one week
same,SCL-90-R depression values,"[3]; after third administration, versus start",reduction in the depression values
same,SCL-90-R at the end,"[3]; patient P01 (associated cocaine consumption), SCL-90-R at the start 78",0
same,SCL-90-R at the end,"[3]; patient P02 (associated cocaine consumption), SCL-90-R at the start 48",30
same,SCL-90-R at the end,"[3]; patient P03 (associated alcohol consumption), SCL-90-R at the start 92",25
